“Also recorded” adds a separate entry of the source.
Legend:
NRel M. catarrhalis = settings: released from dual-species biofilm by anti-rsPilA; cited from earlier work
NRel NTHI = settings: released from dual-species biofilm by anti-rsPilA; cited from earlier work
[1] = system: NTHI (biofilm-resident, planktonic, anti-rsPilA NRel, anti-IHF NRel); assay: Antibiotic sensitivity of biofilm-resident, planktonic or NRel NTHI (2 h antibiotic exposure, CFU plating); format: cell-based, Nontypeable Haemophilus influenzae; settings: for sensitivity to killing of anti-IHF NRel compared to planktonic NTHI / sensitivity to killing of anti-rsPilA NRel compared to planktonic NTHI: 2 h antibiotic at concentration killing ~20-25% of planktonic NTHI; for sensitivity to killing of time-matched anti-rsPilA NRel compared to planktonic NTHI: TMP-SMX 0.09 and 0.45 μg per ml, AMC 0.3 and 0.15 μg per ml
Description: Biofilms were established for 16 hr at 37° C. as described above. For biofilm-resident NTHI: biofilms were washed twice with DPBS and incubated in sBHI supplemented with the indicated antibiotics for at 37° C. 2 h. For planktonic NTHI: NTHI were incubated in sBHI for 3 hr as described above to reach log phase of growth, then diluted to the approximate concentration of either the anti-IHF (2×10^8 CFU/ml) or anti-rsPilA NRels (3×10^8 CFU/ml) to permit comparison between anti-IHF or anti-rsPilA NRels, (see FIG. 1). Planktonic NTHI were incubated with the indicated antibiotics at 37° C. for 2 hr. For NRel NTHI: anti-IHF or anti-rsPilA NRel, generated and collected as described above were incubated at 37° C. for 2 hr with the indicated antibiotics. CFU NTHI were determined by serial dilution and plating. Amoxicillin (Sigma-Aldrich, St. Louis, MO) and clavulanate (U.S. Pharmacopeia, Rockville, MD) were used at a ratio of 2:1. Trimethoprim (Sigma-Aldrich) and sulfamethoxazole (Santa Cruz Biotech, Dallas, TX) were used at a ratio of 1:5. […] All experiments were performed at least three times on separate days with two technical replicates for each treatment and control group.
To avoid excessive manipulation or dilution of NRel NTHI, and to permit direct comparison of equal numbers of planktonic and NRel, the planktonic cell density was adjusted to the same CFU per ml as the NRel population in each experiment as follows: NTHI were incubated statically to mid log phase growth then diluted to either 3×10^8 CFU/ml for comparison with anti-rsPilA NRel collected at 6 h, or to 2×10^8 CFU/ml for comparison with anti-IHF NRel collected at 15 min (see FIG. 1). Applicant then determined the concentrations of amoxicillin (Sigma-Aldrich, St. Louis, MO) and clavulanate (U.S. Pharmacopeia, Rockville, MD), or of trimethoprim (Sigma-Aldrich) and sulfamethoxazole (Santa Cruz Biotech, Dallas, TX) that killed approximately 25% of planktonic NTHI at each density. The same antibiotic concentrations were used for the anti-IHF or anti-rsPilA NRel, the density-matched (same CFU/ml) planktonic NTHI, and the adherent biofilm for each relevant experiment. […] Applicant then assessed killing of anti-IHF or anti-rsPilA NRel by concentrations of amoxicillin plus clavulanic acid (“augmentin”, AMC) or trimethoprim plus sulfamethoxazole (TMP-SMX) that killed 25% of the planktonic NTHI at the same density.
Anti-rsPilA or anti-IHF NRel were collected and sonicated as described above. After sonication for 2 min in a water bath sonicator to break up any NTHI aggregates, NRel or planktonic NTHI were incubated with the indicated antibiotics at 37° C. for 2 h, then serially diluted and plated on chocolate agar to quantify viable NTHI. To assay biofilm-resident NTHI, biofilms were established for 16 h at 37° C. as described above, washed twice with DPBS and incubated in sBHI supplemented with the indicated antibiotics at 37° C. After 2 h, biofilm-resident NTHI were collected by forceful pipetting, sonicated for 2 min and enumerated as described above. All experiments were performed at least three times on separate days with two or three technical replicates for each treatment and control group.

[2] = system: NRel versus Non-Associated NTHI
From the text: Applicant tested for this phenotype for either Amox/Clav or Trimethoprim/Sulfamethoxazole to determine when this sensitivity first appears and how long this NRel phenotype lasts (i.e. what is the window of opportunity in which to treat a patient with a biofilm disease?). Here, NRel are compared not to planktonic bacteria (due to their artificiality) but rather to “Non-Associated” bacteria which are those found in the supernatant above the biofilm but not associated with biofilm residence as this population represents those bacteria that naturally come off the biofilm or were never a part of the biofilm which is a normal aspect of the preferred bacterial lifestyle in nature. […] Box Legend: NRelAC—relative killing by Amox/Clav; NRel TS—relative killing by Trimethoprim/Sulfamethoxazole; open symbols are the same but for the non-associated populations of bacteria as now described in this legend. Data was generated with a murine anti-tip chimer antibody.
Box Legend: NRelAC—relative killing by Amox/Clav; NRel TS—relative killing by Trimethoprim/Sulfamethoxazole; open symbols are the same but for the non-associated populations of bacteria as now described in this legend. Data was generated with a murine anti-tip chimer antibody.

[3] = after exposure to antibodies against rsPilA

Compound: CC[C@H]1OC(=O)[C@H](C)[C@@H](O[C@H]2C[C@@](C)(OC)[C@@H](O)[C@H](C)O2)[C@H](C)[C@@H](O[C@@H]2O[C@H](C)C[C@H](N(C)C)[C@H]2O)[C@](C)(OC)C[C@@H](C)C(=O)[C@H](C)[C@@H](O)[C@]1(C)O [clarithromycin]
- susceptibility of NRel M. catarrhalis compared to those from growth on agar (NRel M. catarrhalis): more susceptible

Compound: trimethoprim and sulfamethoxazole [T/S]
- susceptibility of NRel NTHI compared to those from growth on agar (NRel NTHI): more susceptible
- sensitivity of biofilm-resident NTHI to killing ([1]; 16 h biofilm, 2 h antibiotic): minimal sensitivity
- sensitivity to killing of anti-IHF NRel compared to biofilm-resident NTHI ([1]; NRel after 15 min anti-IHF, 2 h antibiotic): significantly more sensitive
- sensitivity to killing of anti-IHF NRel compared to planktonic NTHI ([1]; NRel after 15 min anti-IHF): only equally as sensitive
- sensitivity to killing of anti-IHF NRel compared to planktonic NTHI ([1]; NRel after 15 min anti-IHF, listed as TMP-SMX): only equally as sensitive
- sensitivity to killing of anti-rsPilA NRel compared to biofilm-resident NTHI ([1]; NRel after 6 h anti-rsPilA, 2 h antibiotic): significantly more sensitive
- sensitivity to killing of anti-rsPilA NRel compared to planktonic NTHI ([1]; NRel after 6 h anti-rsPilA): significantly more sensitive; also recorded: significantly greater
- sensitivity to killing of anti-rsPilA NRel compared to planktonic NTHI ([1]; NRel after 6 h anti-rsPilA, listed as TMP-SMX): significantly greater
- sensitivity to killing of time-matched anti-rsPilA NRel compared to planktonic NTHI ([1]; NRel collected after 2 h, listed as TMP-SMX): significantly more susceptible
- sensitivity to killing of time-matched anti-rsPilA NRel compared to planktonic NTHI ([1]; NRel collected after 2 h, listed as TMP/SMX): significantly more sensitive
- sensitivity to killing of time-matched anti-IHF NRel compared to planktonic NTHI ([1]; NRel collected after 2 h, TMP-SMX 0.94 and 4.7 μg/ml, AMC 2.5 and 1.25 μg/ml): only equally as sensitive; also recorded: equally susceptible
- sensitivity of anti-DNABII NRel to killing compared to Non-Associated bacteria ([2]; NRel induced with murine anti-tip chimer antibody): as but not more sensitive
- sensitivity of anti-rsPilA NRel to being killed compared to Non-Associated bacteria ([2]; NTHI released by antibody against rsPilA): significantly greater sensitivity
- time at which greater sensitivity of anti-rsPilA NRel appears [2, 3]: approximately one
- time at which the sensitive phenotype of anti-rsPilA NRel remains [2, 3]: ≥ 6 h

— US12116614B2, “Methods for determining antibiotic sensitivity” (priority 2020, dated 2024)
